Among the test systems are SK-OV-3; A549; SN12C; RPMI-8226; SF-295; M14; NCI/ADR-RES; K562; SW-620; NCI-H460; Hs-578T; SF-539; 786-0; MOLT-4; HT-29; OVCAR-8; A498; NCI-H226; KM12; COLO 205.
Test in all cases: growth of human tumour cells (NCI), 48 h

The values below come from ChEMBL document CHEMBL1201862, “PubChem BioAssay data set” (2004).

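Tested at 5 concentrations; 48 h exposure; 96-well plates; endpoints linearly interpolated, else capped at highest concentration. GI50 = concentration required for 50% inhibition of growth.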 Calls of active or inactive are those of the source. Rule as the data show it: active = GI50 up to about 1.1 µM and inactive = higher.

On to `C=C1CC(C)(COc2cc(=O)oc3ccccc23)OC1=O` (stereo not given), for which the GI50 in the assay with SK-OV-3 is 10.6 µM (inactive); in the assay with A549, 14 µM (inactive); in the assay with SN12C, 8.3 µM (inactive); in the assay on RPMI-8226, 0.637 µM (active); with SF-295 it was 12.7 µM (inactive); with M14, 1.42 µM (inactive). Moreover, the GI50 in the assay on NCI/ADR-RES is 3.35 µM (inactive); with K562, 2 µM (inactive); in the assay on SW-620, 2.57 µM (inactive); in the assay with NCI-H460 it was 11.1 µM (inactive); in the assay with Hs-578T, 7.74 µM (inactive); in the assay with SF-539, 3.96 µM (inactive). For the same compound, the GI50 in the assay with 786-0 is 2.84 µM (inactive); in the assay with MOLT-4, 1.94 µM (inactive); in the assay with HT-29 it was 3.82 µM (inactive); in the assay with OVCAR-8 it was 5.21 µM (inactive); in the assay with A498, 2.91 µM (inactive); in the assay on NCI-H226, 10.3 µM (inactive). For the same compound, the GI50 in the assay on KM12 was 8.02 µM (inactive); with COLO 205, 2.03 µM (inactive).

For `O=[N+]([O-])c1ccc(C2=NOC(c3ccccc3)N2C23CC4CC(CC(C4)C2)C3)cc1` (stereo not given), the GI50 was 43.2 µM (inactive) in the assay with SK-OV-3; 32.9 µM (inactive) with A549; 46 µM (inactive) with SN12C; > 10 µM (inactive) with RPMI-8226; 26.8 µM (inactive) with SF-295; 32.7 µM (inactive) in the assay on M14. Besides, the GI50 with NCI/ADR-RES was 35.8 µM (inactive); in the assay on K562, 19.1 µM (inactive); in the assay on SW-620, 35.3 µM (inactive); in the assay with NCI-H460 it was 19.3 µM (inactive); in the assay on Hs-578T, 19.5 µM (inactive); in the assay on SF-539, 54 µM (inactive). Moreover, the GI50 in the assay on 786-0 was 17.6 µM (inactive); in the assay on MOLT-4, 17.5 µM (inactive); in the assay with HT-29, 21.3 µM (inactive); in the assay with OVCAR-8 it was 21.5 µM (inactive); in the assay with A498 it was > 100 µM (inactive); in the assay on NCI-H226 it was 30.5 µM (inactive). The GI50 with KM12 is 27.4 µM (inactive); with COLO 205 it was 30 µM (inactive).

As for `O=C(/C=C/c1cc(O)c(O)cc1O)OCCc1ccccc1`, the GI50 in the assay with SK-OV-3 was 26.8 µM (inactive); in the assay on A549, > 67.8 µM (inactive); in the assay on SN12C, 15.6 µM (inactive); with RPMI-8226, 3.56 µM (inactive); in the assay on SF-295, 29.4 µM (inactive); in the assay on M14, 14.9 µM (inactive). Moreover, the GI50 in the assay on NCI/ADR-RES was 27.2 µM (inactive); in the assay on K562, 2.28 µM (inactive); in the assay on SW-620, 5.19 µM (inactive); in the assay on NCI-H460, 34.5 µM (inactive); in the assay with Hs-578T it was 39.5 µM (inactive); in the assay on SF-539, 18.6 µM (inactive). Further, the GI50 in the assay with 786-0 was 5.05 µM (inactive); in the assay with MOLT-4, 2.87 µM (inactive); in the assay with HT-29, 18.4 µM (inactive); in the assay with OVCAR-8, 9.57 µM (inactive); in the assay on A498, 21.2 µM (inactive); in the assay with NCI-H226 it was 35.6 µM (inactive). In addition, the GI50 in the assay on KM12 was 62.4 µM (inactive); with COLO 205 it was 11.2 µM (inactive).

For the compound `Clc1cc(OCc2nn3c(Cc4ccccc4)nnc3s2)ccc1OCc1nn2c(Cc3ccccc3)nnc2s1`, the GI50 with SK-OV-3 was 26.7 µM (inactive); with A549 it was 32.2 µM (inactive); with SN12C, 45.3 µM (inactive); in the assay on RPMI-8226, 49.7 µM (inactive); with SF-295, 19.5 µM (inactive); with M14 it was 87.7 µM (inactive). Moreover, the GI50 is 59.3 µM (inactive) in the assay with NCI/ADR-RES; 95.9 µM (inactive) in the assay with K562; 79.8 µM (inactive) in the assay on SW-620; 65.8 µM (inactive) with NCI-H460; 48.9 µM (inactive) with Hs-578T; 16.2 µM (inactive) in the assay on SF-539. The GI50 with 786-0 was 19.5 µM (inactive); in the assay with MOLT-4, 34.4 µM (inactive); in the assay on HT-29, 79.1 µM (inactive); in the assay on OVCAR-8, 20.7 µM (inactive); with A498 it was 29.1 µM (inactive); in the assay with NCI-H226, 54.6 µM (inactive). Also, the GI50 in the assay on KM12 was 79.8 µM (inactive); in the assay on COLO 205 it was > 100 µM (inactive).

For the compound `CN(/N=C/c1ccccn1)C1=NCCCN1`, the GI50 with SK-OV-3, in the assay on A549, in the assay with RPMI-8226, with SF-295, in the assay with M14 and in the assay with NCI/ADR-RES was > 100 µM (inactive) each time. For the same compound, the GI50 with K562, in the assay on SW-620, with NCI-H460, in the assay with Hs-578T, in the assay with SF-539 and with 786-0 was > 100 µM (inactive) each time. Besides, the GI50 in the assay on MOLT-4 was > 100 µM (inactive); in the assay on HT-29, > 100 µM (inactive); in the assay with OVCAR-8 it was > 100 µM (inactive); in the assay on A498, 91.6 µM (inactive); in the assay with NCI-H226 it was > 100 µM (inactive); with KM12, > 100 µM (inactive). In addition, in the assay with COLO 205, the GI50 was > 100 µM (inactive).

In the case of `N#Cc1c(N2CCCC2)nsc1NCc1ccccc1`, the GI50 in the assay with SK-OV-3, in the assay with A549, in the assay on SN12C, with RPMI-8226, in the assay with SF-295 and in the assay on M14 was > 100 µM (inactive) in each case. For the same compound, the GI50 with NCI/ADR-RES was > 100 µM (inactive); in the assay on K562, > 100 µM (inactive); with SW-620 it was > 100 µM (inactive); in the assay on NCI-H460, > 100 µM (inactive); with Hs-578T, 60.4 µM (inactive); in the assay on SF-539, > 100 µM (inactive). Further, the GI50 in the assay on 786-0, in the assay with MOLT-4, in the assay with HT-29, with OVCAR-8, with A498 and in the assay with NCI-H226 was > 100 µM (inactive) in each case. The GI50 in the assay on KM12 and in the assay on COLO 205 was > 100 µM (inactive) in each case.

As for `CC(=O)N/N=C1\NC(=O)C[C@H]2[C@@H]3CC=C4C[C@@H](OC(C)=O)CC[C@]4(C)[C@H]3CC[C@]12C`, the GI50 with SK-OV-3 is 21.1 µM (inactive); in the assay on A549, 34.2 µM (inactive); in the assay with SN12C it was 29.6 µM (inactive); with RPMI-8226, 24.3 µM (inactive); with SF-295, 14.1 µM (inactive); with M14, 30.8 µM (inactive). Moreover, the GI50 in the assay on NCI/ADR-RES is 39.4 µM (inactive); with K562 it was > 100 µM (inactive); in the assay with SW-620, 23.7 µM (inactive); in the assay on Hs-578T it was 17.8 µM (inactive); in the assay on SF-539, 7.33 µM (inactive); in the assay on 786-0 it was 16 µM (inactive). Further, the GI50 in the assay on MOLT-4 is > 100 µM (inactive); in the assay with HT-29, 31.4 µM (inactive); in the assay with OVCAR-8 it was 25.1 µM (inactive); with A498, 18.7 µM (inactive); with NCI-H226, 23.8 µM (inactive); in the assay with KM12, 38.9 µM (inactive). The GI50 with COLO 205 was 45.3 µM (inactive).

In the case of `CCN1C(=O)C(=C/C=C/C=C2/N(C)c3ccccc3C2(C)C)C(=O)N(CC)C1=S`, the GI50 with SK-OV-3 was 36.3 µM (inactive); in the assay with A549 it was > 100 µM (inactive); with SN12C, > 100 µM (inactive); in the assay on RPMI-8226, > 100 µM (inactive); in the assay on SF-295, 61.5 µM (inactive); with M14, > 100 µM (inactive). Also, the GI50 in the assay on NCI/ADR-RES was > 100 µM (inactive); with K562, 58.6 µM (inactive); in the assay with SW-620 it was > 100 µM (inactive); with NCI-H460, 38.9 µM (inactive); in the assay on Hs-578T it was > 100 µM (inactive); in the assay on SF-539, 78.3 µM (inactive). For the same compound, the GI50 is 42.2 µM (inactive) in the assay with 786-0; 55.6 µM (inactive) in the assay with HT-29; > 100 µM (inactive) in the assay on OVCAR-8; > 100 µM (inactive) in the assay with A498; > 100 µM (inactive) in the assay on NCI-H226; > 100 µM (inactive) with KM12. The GI50 with COLO 205 is > 100 µM (inactive).

On to `O=C(C=P(c1ccccc1)(c1ccccc1)c1ccccc1)c1ccc(-c2ccc(F)cc2F)cc1`, for which the GI50 with SK-OV-3 is 2.83 µM (inactive); in the assay with A549 it was 2.73 µM (inactive); with SN12C, 2.31 µM (inactive); in the assay on RPMI-8226 it was 1.87 µM (inactive); in the assay on SF-295 it was 3.15 µM (inactive); in the assay with M14 it was 2.42 µM (inactive). Besides, the GI50 with NCI/ADR-RES was 3.09 µM (inactive); in the assay on K562 it was 2.18 µM (inactive); in the assay with SW-620, 3.58 µM (inactive); in the assay on NCI-H460, 1.86 µM (inactive); in the assay with Hs-578T, 3.97 µM (inactive); in the assay with SF-539, 2.88 µM (inactive). Besides, the GI50 with 786-0 was 3.56 µM (inactive); with MOLT-4, 1.83 µM (inactive); with HT-29, 2.18 µM (inactive); in the assay with A498, 2.64 µM (inactive); in the assay with NCI-H226, 2.43 µM (inactive); in the assay on KM12, 3.42 µM (inactive). In addition, in the assay with COLO 205, the GI50 is 1.64 µM (inactive).

Consider `Cc1[nH]nc(C(=O)N/N=C/c2ccccc2Cl)c1/N=N\N(C)C`, for which the GI50 is > 100 µM (inactive) in the assay on SK-OV-3; > 100 µM (inactive) in the assay with A549; > 54.3 µM (inactive) in the assay on SN12C; 2.51 µM (inactive) in the assay with RPMI-8226; > 54 µM (inactive) in the assay on SF-295; > 100 µM (inactive) in the assay with M14. For the same compound, the GI50 in the assay with NCI/ADR-RES is 6.1 µM (inactive); with K562, 0.802 µM (active); in the assay on SW-620 it was > 33 µM (inactive); with Hs-578T, 2.09 µM (inactive); in the assay on SF-539, 5.56 µM (inactive); with 786-0, 5.04 µM (inactive). Moreover, the GI50 was 2.2 µM (inactive) in the assay on MOLT-4; > 53.3 µM (inactive) in the assay with HT-29; 7.98 µM (inactive) in the assay with OVCAR-8; 2.19 µM (inactive) in the assay on A498; > 100 µM (inactive) in the assay with NCI-H226; 2.86 µM (inactive) in the assay with KM12. In addition, in the assay on COLO 205, the GI50 is > 100 µM (inactive).
